Patent publication US8497263B2, “Pyrrolinone derivative and pharmaceutical composition comprising the same” (Shionogi & Co., Ltd., priority 2007, dated 2013)

Experiments:
human P2X3 receptor = molecular target: T1, human P2X3 receptor (Homo sapiens, UniProt P56373); experiment: Inhibition of ATP-induced calcium fluorescence (Fluo-3, FDSS 3000) in C6BU-1 cells stably expressing human P2X3 receptor; assay type: cell-based; conditions: C6BU-1 cell transfected with human P2X3 receptor gene; 40 nM ATP solution; Fluo-3 fluorescence intensity
T1 construct: expressed in transfected cells
T1 sequence (P56373 1-397): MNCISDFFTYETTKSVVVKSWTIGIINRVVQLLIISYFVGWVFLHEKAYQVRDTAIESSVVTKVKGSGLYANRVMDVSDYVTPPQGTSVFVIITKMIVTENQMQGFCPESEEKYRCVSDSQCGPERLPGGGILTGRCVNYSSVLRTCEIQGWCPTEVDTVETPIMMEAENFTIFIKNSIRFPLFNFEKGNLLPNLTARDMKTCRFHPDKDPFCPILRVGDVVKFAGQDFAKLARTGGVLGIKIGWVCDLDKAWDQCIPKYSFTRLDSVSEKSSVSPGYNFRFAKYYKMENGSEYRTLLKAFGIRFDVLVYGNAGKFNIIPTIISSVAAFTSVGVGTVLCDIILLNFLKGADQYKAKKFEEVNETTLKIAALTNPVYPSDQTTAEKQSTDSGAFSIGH
Experimental: Stably expressing cell line (C6BU-1 cell transfected with human P2X3 receptor gene (GenBank accession number Y07683)) was used. The cells were seeded in a 96-well microtiter plate at a concentration of 8000 cells/well and cultured in the medium (8.3% fetal bovine serum, 8.3% horse serum, 1% antibiotic and antifungal in DMEM) for one day at 37° C. under 5% carbon dioxide atmosphere. The medium was replaced with 4 μM Fluo-3-AM solution (pH7.5) containing 20 mM HEPES, 137 mM NaCl, 2.7 mM KCl, 0.9 mM MgCl2, 5.0 mM CaCl2, 5.6 mM D-glucose, 2.5 mM probenecid, 10% BSA, and 0.08% Pluronic F-127, and incubated at 37° C. under 5% dioxide carbon atmosphere for one hour. The plate was washed with washing buffer (20 mM HEPES, 137 mM NaCl, 2.7 mM KCl, 0.9 mM MgCl2, 5.0 mM CaCl2, 5.6 mM D-glucose, 2.5 mM probenecid, pH7.5), and each well was added with 40 μL of this buffer. The plate was placed in High-Throughput Screening System FDSS 3000 (Hamamatsu Photonics K.K.). Measurement of fluorescence intensity by FDSS 3000 was started, and 40 μL of DMSO solutions containing different concentrations of the test compound as prepared by dilution with dilution buffer (20 mM HEPES, 137 mM NaCl, 2.7 mM KCl, 0.9 mM MgCl2, 5.0 mM CaCl2, 5.6 mM D-glucose, 2.5 mM probenecid, 0.1% Pluronic F-127, pH7.5) were dispensed to each well through the built-in automatic dispenser. Five minutes after, 40 nM ATP solution (50 μL) prepared by dilution with the dilution buffer was dispensed through the built-in automatic dispenser, and the measurement of fluorescence intensity was continued for 3 min. For each well, the specific maximum fluorescence intensity was calculated as the ratio of the maximum fluorescence intensity after addition of the ATP solution to the fluorescence intensity at the starting of the measurement. […] FDSS software (Hamamatsu Photonics K.K.) was used for calculation of the specific maximum fluorescence intensity. IC50 was calculated using Microsoft™ Excel™ (Microsoft Corporation) and XLfit™ (ID Business Solutions Ltd.).

SMILES | melting point | IC50 (human P2X3 receptor) [nM]
COc1ccc(C(=O)C2=C(O)C(=O)N(c3ccc(SC(F)(F)F)cc3)C2c2ccc(F)cc2)cc1 (centres unmarked) [Example I-45] | 225 to 228 °C (dec.) | 580
COc1ccc(C(=O)C2=C(O)C(=O)N(c3ccc(OC(F)(F)F)cc3)C2c2ccc(F)cc2)cc1 (centres unmarked) [Example I-48] | 241 to 244 °C | 970
COc1ccc(C(=O)C2=C(O)C(=O)N(c3ccc(C4=NCCO4)cc3)C2c2ccc(F)cc2)cc1 (centres unmarked) [Example I-69] | 189 to 192 °C | 3780
CC(C)(C)c1n[nH]c2c1C(C1CCCCC1)N(c1ccc(-c3ccon3)cc1)C2=O (centres unmarked) [Example I-96, 3-tert-butyl-4-cyclohexyl-5-(4-isoxazol-3-ylphenyl)-4,5-dihydro-1H-pyrrolo[3,4-c]pyrazol-6-one] | 251 to 252 °C | 920
